Source: US20050152911A1, “Norovirus monoclonal antibodies and peptides” (priority 2003, published 2005)
Ends that are not written are not given here.

How the values were obtained:
[1] = tested on: rNV binding to CaCo-2 cells; conditions: serial dilutions of peptide, free and linked to carrier; Example 4 written in present tense
[2] = tested on: rSMV binding to CaCo-2 cells; conditions: serial dilutions of peptide, free and linked to carrier; Example 4 written in present tense

| Sequence | reduction of binding of rNV to CaCo-2 cells [1] | reduction of binding of rSMV to CaCo-2 cells [2] |
| --- | --- | --- |
| WTRGQHQL [compound 1732, WTRGQHQL] | reduce the binding |  |
| WLPAPIDKL [peptide 1800, WLPAPIDKL] |  | reduces binding |
| WTRGGHGL [compound 1731, WTRGGHGL] | reduce the binding |  |
| WTRGSHNL [peptide 1730, WTRGSHNL] | reduce the binding |  |
